# Ends that are not written are not given here.
# Columns and labels:
# [1] = tested on: TCR-8; assay: Primary phagemid binding ELISA, TCR-8 wells; details: ELISA signal; phagemid supernatant on Neutravidin captured biotin-conjugated TCR-8
# [2] = molecular target: T1, Neutravidin (Gallus gallus, UniProt P02701); assay: Primary phagemid binding ELISA, Neutravidin control wells (TCR-8 panning); details: ELISA signal; Neutravidin alone
# Procedure: The next day the deep well plates were centrifuged to separate the soluble phagemid from the E. coli cells. The phagemid containing supernatants were then combined with PBS-Tween 20 (0.05%)+BSA (1%) blocking buffer and incubated in ELISA wells containing Neutravidin captured biotin-conjugated TCR-8 (Table 1) or Neutravidin alone. After binding at 4 degrees the plates were washed and specifically bound phage were detected by anti-m13 HRP conjugated antibodies using standard TMB-based chromogenic ELISA procedures. Daughter plates or individual wells were subjected to standard DNA sequencing for clonal peptide sequence identification.
# [3] = molecular target: T1, Neutravidin; assay: Primary phagemid binding ELISA, Neutravidin control wells (TCR-1 panning); details: ELISA signal; Neutravidin alone
# Text: (§3) The next day the deep well plates were centrifuged to separate the soluble phagemid from the E. coli cells. […] After binding at 4 degrees the plates were washed, and specifically bound phage were detected by anti-m13 HRP conjugated antibodies using standard TMB-based chromogenic ELISA procedures. Daughter plates or individual wells were subjected to standard DNA sequencing for clonal peptide sequence identification.
# [4] = tested on: TCR-1; assay: Secondary pMHC phagemid competition ELISA on TCR-1; format: binding; details: for Secondary pMHC phagemid competition ELISA binding with 200 nM pMHC competitor / Secondary pMHC phagemid competition ELISA IC-3 binding no pMHC competitor: ELISA signal; for Secondary pMHC phagemid competition ELISA binding with 200 nM pMHC competitor: 200 nM Human MAGE-A3 pMHC competitor; for % binding with pMHC competition: TCR-1, 200 nM pMHC competitor relative to no competitor
# Procedure: Human MAGE-A3 pMHC was added to wells to block the active binding site. After a brief incubation period phagemid supernatants were added to both sets of wells. Following further incubation at 4 degrees the plates were washed and specifically bound phage were detected by anti-m13 HRP conjugated antibodies using standard TMB-based chromogenic ELISA procedures. Phagemid clones binding within the antigenic binding pocket would be blocked and be identified by a decreased ELISA signal, compared to a well lacking previous pMHC blockade.
# [5] = tested on: TCR-1; assay: Primary phagemid binding ELISA, TCR-1 wells; details: ELISA signal; phagemid supernatant on Neutravidin captured biotin-conjugated TCR-1
# Text: as §3
# [6] = tested on: TCR-8; assay: Secondary pMHC phagemid competition ELISA on TCR-8; format: binding
# Procedure: TCR-8 immobilized and blocked 96-well ELISA plates similar to above were prepared. Tetrameric human MAGE-A3 pMHC was first added to wells to block the active binding site. After a brief incubation period (30-60 minutes) phagemid supernatants were added to both sets of wells. Following further incubation at 4 degrees the plates were washed and specifically bound phage were detected by anti-m13 HRP conjugated antibodies using standard TMB-based chromogenic ELISA procedures.
# [7] = molecular target: TCR-1; assay: ELISA-based binding of TCR-1 to synthetic peptides; details: result in words; numbers are in Table 3, not printed here
# Procedure: (§1) ELISA-based binding: High binding plates were first coated with neutravidin. Neutravidin coated plates were blocked using bovine serum albumin in buffer and washed. Biotinylated peptide or pMHC at a single concentration of 100 nM was captured on neutravidin coated plates, quenched using excess biocytin, and washed. […] TCR was then titrated onto the peptide or pMHC captured plates for 1 hour and washed. […] Plates were then developed using tetramethylbenzidine (TMB) for 5-10 min and stopped using acid.
# as §1, with “High” for “ELISA-based binding: High”, “peptide” for “peptide or pMHC”, “acid. Absorbance at 450 nm was measured for each plate and plotted versus log-scale TCR concentration. […]” for “acid.”
# High binding plates were first coated with neutravidin. Neutravidin coated plates were blocked using bovine serum albumin in buffer and washed. […] Absorbance at 450 nm was measured for each plate and plotted versus log-scale TCR concentration.
# [8] = molecular target: TCR-1 binding to MAGE-A3 pMHC; assay: Peptide inhibition of TCR-1 binding to MAGE-A3 pMHC in competitive binding ELISA; details: 1 nM TCR-1, result in words
# Procedure: (§2) Peptide inhibition in competitive binding ELISAs: High binding plates were first coated with neutravidin. Neutravidin coated plates were blocked using bovine serum albumin in buffer and washed. Biotinylated pMHC at a single concentration of 100 nM was captured on neutravidin coated plates, quenched using excess biocytin, and washed. […] Inhibitory peptide and TCR mixtures were then added to the pMHC captured plates for 30 min and washed. […] Plates were then developed using tetramethylbenzidine (TMB) for 5-10 min and stopped using acid.
# as §2, with “High” for “Peptide inhibition in competitive binding ELISAs: High”, “acid. Absorbance at 450 nm was measured for each plate and plotted versus log-scale inhibitory peptide concentration.” for “acid.”
# High binding plates were first coated with neutravidin. Neutravidin coated plates were blocked using bovine serum albumin in buffer and washed. […] Absorbance at 450 nm was measured for each plate and plotted versus log-scale inhibitory peptide concentration.
# [9] = molecular target: TCR-1 binding to MAGE-A3 pMHC; assay: Peptide inhibition of TCR-1 kinetic binding to MAGE-A3 pMHC (BLI); details: 50 nM TCR-1; result in words
# Procedure: Zero concentration of inhibitory peptide (100% binding) or zero concentration of TCR (0% binding) was used as a control. Biotinylated pMHC was captured on streptavidin biosensors. Sensors were quenched using excess biocytin and then baselined in buffer. Inhibitory peptide and TCR mixtures were associated onto the pMHC loaded biosensor. Association signal was monitored in real-time. Biosensors were then transferred to buffer and the dissociation signal was measured in real-time.
# Zero concentration of inhibitory peptide (100% binding) or zero concentration of TCR (0% binding) was used as a control. Biotinylated pMHC was captured on streptavidin biosensors. Sensors were quenched using excess biocytin and then baselined in buffer. […] Association signal was monitored in real-time. Biosensors were then transferred to buffer and the dissociation signal was measured in real-time. Data was baseline corrected. The maximal association signal was normalized from 100% (0 uM inhibitory peptide control) to 0% (0 uM TCR control) and plotted versus log-scale inhibitory peptide concentration. […]
# Inhibitory peptide titrated in a 2-fold dilution series starting from 100 uM was first incubated with a constant concentration of 50 nM TCR. […] Association signal was monitored in real-time. Biosensors were then transferred to buffer and the dissociation signal was measured in real-time. […]
# [10] = tested on: TCR-1, TCR-8, TCR-9, TCR-10; assay: BLI binding specificity of Peptide-5 against TCR-1 and closely related TCRs; details: TCRs from 50 nM or at 100 uM on saturating Peptide-5
# Procedure: The other TCRS chosen are closely related to the target TCR-1. BLI based kinetic binding of TCR-land closely related TCRS, TCR-8, TCR-9, and TCR-10 to inhibitory peptides was measured using a ForteBio Octet RED96 instrument. Biotinylated peptides were first captured on streptavidin biosensors. Sensors were quenched using excess biocytin and then baselined in buffer. TCRs were titrated in a 2-fold dilution series starting from 50 nM and were associated onto the inhibitory peptide loaded biosensor. Association signal was monitored in real-time. Biosensors were then transferred to buffer and the dissociation of TCR was measured in real-time. Response data was baseline corrected and fit to a 1:1 binding model used to calculate association and dissociation rates.
# BLI based kinetic binding of TCR-land closely related TCRS, TCR-8, TCR-9, and TCR-10 to inhibitory peptides was measured using a ForteBio Octet RED96 instrument. Biotinylated peptides were first captured on streptavidin biosensors until signal saturation. Sensors were quenched using excess biocytin and then baselined in buffer. TCRs were associated 100 uM onto the inhibitory peptide loaded biosensor. Association signal was monitored in real-time. Biosensors were then transferred to buffer and the dissociation of TCR was measured in real-time. […]
# [11] = molecular target: T1, Neutravidin; assay: primary phagemid binding ELISA, Neutravidin alone
# TCR-1, sequence (as listed by the source): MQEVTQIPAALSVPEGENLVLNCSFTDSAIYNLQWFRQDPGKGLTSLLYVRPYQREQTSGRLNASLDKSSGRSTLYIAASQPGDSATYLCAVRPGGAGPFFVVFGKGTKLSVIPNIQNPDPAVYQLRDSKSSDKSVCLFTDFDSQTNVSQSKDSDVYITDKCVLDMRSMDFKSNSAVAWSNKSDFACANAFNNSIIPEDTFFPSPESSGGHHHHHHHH
# TCR-1, sequence (as listed by the source): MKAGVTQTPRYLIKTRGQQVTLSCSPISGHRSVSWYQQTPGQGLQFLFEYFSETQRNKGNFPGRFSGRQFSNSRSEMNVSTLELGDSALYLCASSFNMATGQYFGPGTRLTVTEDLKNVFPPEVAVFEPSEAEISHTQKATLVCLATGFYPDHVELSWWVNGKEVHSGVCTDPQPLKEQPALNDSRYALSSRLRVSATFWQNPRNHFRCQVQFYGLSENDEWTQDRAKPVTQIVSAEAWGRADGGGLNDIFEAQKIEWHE
# TCR-8, sequence (as listed by the source): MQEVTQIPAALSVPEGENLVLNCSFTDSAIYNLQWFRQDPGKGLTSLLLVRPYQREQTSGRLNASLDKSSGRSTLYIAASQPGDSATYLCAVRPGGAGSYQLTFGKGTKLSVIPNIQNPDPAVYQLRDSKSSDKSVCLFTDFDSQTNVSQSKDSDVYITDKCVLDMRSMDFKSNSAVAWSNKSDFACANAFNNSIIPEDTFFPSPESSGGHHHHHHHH
# TCR-8, sequence (as listed by the source): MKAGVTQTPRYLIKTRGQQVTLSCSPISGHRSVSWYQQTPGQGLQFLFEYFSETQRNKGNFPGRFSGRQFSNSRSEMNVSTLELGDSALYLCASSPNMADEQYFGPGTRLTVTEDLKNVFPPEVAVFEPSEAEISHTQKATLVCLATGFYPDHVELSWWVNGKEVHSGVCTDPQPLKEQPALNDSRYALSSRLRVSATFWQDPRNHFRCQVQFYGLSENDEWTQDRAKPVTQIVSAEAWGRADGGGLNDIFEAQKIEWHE
# T1 sequence (P02701 25-152): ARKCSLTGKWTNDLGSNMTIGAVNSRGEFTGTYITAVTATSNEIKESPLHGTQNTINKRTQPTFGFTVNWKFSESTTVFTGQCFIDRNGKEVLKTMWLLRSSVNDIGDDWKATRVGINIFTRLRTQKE
molecule,measurement,setting,value
GGVICENWQGDRVCWF [J308_A03] (phagemid-displayed),Primary phagemid binding ELISA TCR-8 wells,[1],3.157
same,Primary phagemid binding ELISA Netravidin Control wells,[2],0.132
GGDVRCFMRMMECVLL [J289_D10],Primary Phagemid binding ELISA Neutravidin control wells,[3],0.120
same,Secondary pMHC phagemid competition ELISA binding with 200 nM pMHC competitor,[4],0.132
same,Secondary pMHC phagemid competition ELISA IC-3 binding no pMHC competitor,[4],1.881
same,% binding with pMHC competition,[4],7%
GGLADYCEHPMCYWYS [J250_G02],Primary Phagemid binding ELISA TCR-1 wells,[5],3.122
same,Primary Phagemid binding ELISA Neutravidin control wells,[3],0.152
GGVICENWQGDRVCWF [J308_A09] (phagemid-displayed),Primary phagemid binding ELISA TCR-8 wells,[1],3.065
same,Primary phagemid binding ELISA Netravidin Control wells,[2],0.236
same,Secondary pMHC phagemid competition ELISA binding with 100 nM pMHC tetramer competitor,"[6]; ELISA signal, 100 nM tetrameric human MAGE-A3 pMHC",0.570
same,Secondary pMHC phagemid competition ELISA TCR-8 binding no pMHC competitor,"[6]; ELISA signal, no pMHC competitor",1.877
same,% binding with pMHC competition,"[6]; TCR-8, 100 nM pMHC tetramer competitor relative to no competitor",30%
"Peptide-24: Peptide-5 alanine scan peptide, substitution of lysine at the 6th amino acid position (GGVSCADVYDEAFCWT-NH2; not fully specified; cysteine pairing not given here; also: biotinylated linker, place not given here)",binding EC50 (TCR-1 binding to peptide by ELISA),[7],mild improvements
same,competitive binding IC50,[8],mild improvement
"GGVSCKDVYDEAFCWT [Peptide-5, synthesized with a biotinylated linker and C-terminal amidation]","IC50, inhibition of TCR-1 binding to MAGE-A3 pMHC",[9],lowest
same,binding specificity for TCR-1 against closely related TCRs,[10],selective for TCR-1
GGLADYCEHPMCYWYS [J272_B10],Primary Phagemid binding ELISA Neutravidin control wells,[3],0.068
same,Secondary pMHC phagemid competition ELISA binding with 200 nM pMHC competitor,[4],0.075
same,Secondary pMHC phagemid competition ELISA IC-3 binding no pMHC competitor,[4],1.683
same,% binding with pMHC competition,[4],4%
GGDVRCFMRMMECVLL [J289_D10],ELISA signal (Neutravidin control wells),[11],0.12

# Source: patent US20210115106A1, “MODIFIED T CELL RECEPTORS” (JANUX THERAPEUTICS, INC., priority 2017, published 2021)
